Data: US10681909B2, “Herbicidal triazoles” (FMC Corporation, priority 2014, dated 2020)

Columns and labels:
[1] = system: deadnettle; assay: Test D preemergence; format: in vivo, Lamium amplexicaule; conditions: for Plant response rating (0 to 100), Deadnettle: 16 g ai/ha, 0 is no effect, 100 is complete control; for Plant response rating: Deadnettle: scale 0 to 100
Source text: (§1) Seeds of plant species selected from bluegrass (annual bluegrass, Poa annua), blackgrass (Alopecurus myosuroides), canarygrass (Phalaris minor), chickweed (common chickweed, Stellaria media), galium (catchweed bedstraw, Galium aparine), bromegrass, down (downy bromegrass, Bromus tectorum), Russian thistle (Salsola kali), field poppy (Papaver rhoeas), field violet (Viola arvensis), foxtail, green (green foxtail, Setaria viridis), deadnettle (henbit deadnettle, Lamium amplexicaule), ryegrass, Ital. (Italian ryegrass, Lolium multiflorum), kochia (Kochia scoparia), lambsquarters (Chenopodium album), oilseed rape (Brassica napus), pigweed (Amaranthus retroflexus), chamomile (scentless chamomile, Matricaria inodora), speedwell (bird's-eye speedwell, Veronica persica), barley, spring (spring barley, Hordeum vulgare), wheat, spring (spring wheat, Triticum aestivum), buckwheat, wild (wild buckwheat, Polygonum convolvulus), wild mustard (Sinapis arvensis), oat, wild (wild oat, Avena fatua), radish, wild (wild radish, Raphanus raphanistrum), […]), barley, winter (winter barley, Hordeum vulgare), and wheat, winter (winter wheat, Triticum aestivum) were planted into a silt loam soil and treated preemergence with test chemicals formulated in a non-phytotoxic solvent mixture which included a surfactant. At the same time, these species were planted in pots containing Sunshine Redi-Earth® planting medium comprising spaghnum peat moss, vermiculite, starter nutrients and dolomitic limestone and treated with postemergence applications of the test chemicals formulated in the same manner. Plants ranged in height from 2 to 18 cm (1- to 4-leaf stage). Treated plants and controls were maintained in a controlled growth environment for 14 to 21 d after which time all species were compared to controls and visually evaluated. […] A dash (-) response means no test result.

[2] = system: pigweed; assay: Test D postemergence; format: in vivo, Amaranthus retroflexus; conditions: scale 0 to 100
Source text: as §1

[3] = system: galium; assay: Test D postemergence; format: in vivo, Galium aparine; conditions: scale 0 to 100
Source text: as §1

[4] = system: speedwell; assay: Test D postemergence; format: in vivo, Veronica persica; conditions: scale 0 to 100
Source text: as §1

[5] = system: ragweed; assay: Test A preemergence; format: in vivo, Ambrosia elatior; conditions: 0 to 100 scale (0 no effect, 100 complete control)
In short: (§2)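 Seeds sown in loam soil–sand blend received a directed preemergence soil spray of test chemical in non-phytotoxic solvent with surfactant; postemergence plants, 2 to 10 cm at one- to two-leaf stage, were sprayed with the same formulation. Injury visually rated versus untreated controls after ~10 d in greenhouse, 0–100 scale.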

[6] = system: radish, wild; assay: Test D preemergence; format: in vivo, Raphanus raphanistrum; conditions: for Plant response rating (0 to 100), Radish, Wild: 16 g ai/ha, 0 is no effect, 100 is complete control; for Plant response rating: Radish, Wild: scale 0 to 100
Source text: as §1

[7] = system: foxtail, green; assay: Test D preemergence; format: in vivo, Setaria viridis; conditions: for Plant response rating (0 to 100), Foxtail, Green: 16 g ai/ha, 0 is no effect, 100 is complete control; for Plant response rating: Foxtail, Green: scale 0 to 100
Source text: as §1

[8] = system: radish, wild; assay: Test D postemergence; format: in vivo, Raphanus raphanistrum; conditions: scale 0 to 100
Source text: as §1

[9] = system: galium; assay: Test D preemergence; format: in vivo, Galium aparine; conditions: for Plant response rating (0 to 100), Galium: 16 g ai/ha, 0 is no effect, 100 is complete control; for Plant response rating: Galium: scale 0 to 100
Source text: as §1

[10] = system: chamomile; assay: Test D preemergence; format: in vivo, Matricaria inodora; conditions: for Plant response rating (0 to 100), Chamomile: 16 g ai/ha, 0 is no effect, 100 is complete control; for Plant response rating: Chamomile: scale 0 to 100
Source text: as §1

[11] = system: kochia; assay: Test A postemergence; format: in vivo, Kochia scoparia; conditions: 0 to 100 scale (0 no effect, 100 complete control), approx. 10 d
In short: as §2

Compound | Plant response rating (0 to 100), Deadnettle [1] | Plant response rating: Deadnettle ([1]; 31 g ai/ha) | Plant response rating: Deadnettle ([1]; 62 g ai/ha) | Plant response rating: Deadnettle ([1]; 125 g ai/ha) | Plant response rating: Pigweed ([2]; 16 g ai/ha) | Plant response rating: Pigweed ([2]; 31 g ai/ha) | Plant response rating: Pigweed ([2]; 62 g ai/ha) | Plant response rating: Pigweed ([2]; 125 g ai/ha) | Plant response rating: Galium ([3]; 16 g ai/ha) | Plant response rating: Galium ([3]; 31 g ai/ha) | Plant response rating: Galium ([3]; 62 g ai/ha) | Plant response rating: Galium ([3]; 125 g ai/ha) | Plant response rating: Speedwell ([4]; 16 g ai/ha) | Plant response rating: Speedwell ([4]; 31 g ai/ha) | Plant response rating: Speedwell ([4]; 62 g ai/ha) | Plant response rating: Speedwell ([4]; 125 g ai/ha) | Plant response rating: Radish, Wild ([6]; 62 g ai/ha) | Plant response rating: Radish, Wild ([6]; 125 g ai/ha) | Plant response rating (0 to 100), Foxtail, Green [7] | Plant response rating: Foxtail, Green ([7]; 62 g ai/ha) | further results
CCOc1nc(-c2ccc(C(F)(F)F)cc2)nn1Cc1ccnc(C(F)(F)F)c1 [Compound 35, 4-[[5-ethoxy-3-[4-(trifluoromethyl)phenyl]-1H-1,2,4-triazole-1-yl]methyl]-2-(trifluoromethyl)pyridine] | 80 | 85 | 100 | 100 | 100 | 100 | 100 | 100 | 70 | 75 | 80 | 80 | 75 | 85 | 90 | 100 | 85 | 100 | 70 | 100 | Plant response rating, Ragweed ([5]; 31 g ai/ha): 20; Plant response rating, Ragweed ([5]; 125 g ai/ha): 50; Plant response rating (0 to 100), Radish, Wild [6]: 65; Plant response rating: Foxtail, Green ([7]; 125 g ai/ha): 100; Plant response rating: Radish, Wild ([8]; 16 g ai/ha): 85; Plant response rating: Radish, Wild ([8]; 31 g ai/ha): 100; Plant response rating: Radish, Wild ([8]; 62 g ai/ha): 100; Plant response rating: Radish, Wild ([8]; 125 g ai/ha): 100; Plant response rating (0 to 100), Galium [9]: 70; Plant response rating: Galium ([9]; 62 g ai/ha): 80; Plant response rating: Galium ([9]; 125 g ai/ha): 80; Plant response rating (0 to 100), Chamomile [10]: 95; Plant response rating: Chamomile ([10]; 31 g ai/ha): 100; Plant response rating: Chamomile ([10]; 62 g ai/ha): 100; Plant response rating: Chamomile ([10]; 125 g ai/ha): 100; Plant response rating, Kochia ([11]; 31 g ai/ha): 90; Plant response rating, Kochia ([11]; 125 g ai/ha): 90
FC(F)(F)COc1nc(-c2ccc(Cl)cc2)nn1Cc1ccnc(C(F)(F)F)c1 [Compound 31] | 80 | 80 | 90 | 100 | 100 | 100 | 100 | 100 | 70 | 75 | 80 | 90 | 95 | 90 | 100 | 100 | 100 | 100 | 95 | 100 | Plant response rating, Ragweed ([5]; 125 g ai/ha): 50; Plant response rating, Ragweed ([5]; 500 g ai/ha): 70; Plant response rating: Foxtail, Green ([7]; 125 g ai/ha): 100; Plant response rating: Radish, Wild ([8]; 16 g ai/ha): 95; Plant response rating: Radish, Wild ([8]; 31 g ai/ha): 95; Plant response rating: Radish, Wild ([8]; 62 g ai/ha): 95; Plant response rating: Radish, Wild ([8]; 125 g ai/ha): 100; Plant response rating (0 to 100), Galium [9]: 70; Plant response rating: Galium ([9]; 62 g ai/ha): 80; Plant response rating: Galium ([9]; 125 g ai/ha): 90; Plant response rating (0 to 100), Chamomile [10]: 30; Plant response rating: Chamomile ([10]; 31 g ai/ha): 95; Plant response rating: Chamomile ([10]; 62 g ai/ha): 100; Plant response rating: Chamomile ([10]; 125 g ai/ha): 100; Plant response rating, Kochia ([11]; 125 g ai/ha): 90; Plant response rating, Kochia ([11]; 500 g ai/ha): 90
CCOc1nc(-c2ccccc2)nn1Cc1ccnc(C(F)(F)F)c1 [Compound 27] | 80 | 100 | 100 | 100 | 100 | 100 | 100 | 100 | 70 | 75 | 100 | 100 | 75 | 85 | 95 | 95 | 85 | 100 | 95 | 100 | Plant response rating, Ragweed ([5]; 125 g ai/ha): 90; Plant response rating, Ragweed ([5]; 500 g ai/ha, approx. 10 d): 100; Plant response rating (0 to 100), Radish, Wild [6]: 75; Plant response rating: Foxtail, Green ([7]; 125 g ai/ha): 100; Plant response rating: Radish, Wild ([8]; 16 g ai/ha): 85; Plant response rating: Radish, Wild ([8]; 31 g ai/ha): 90; Plant response rating: Radish, Wild ([8]; 62 g ai/ha): 100; Plant response rating: Radish, Wild ([8]; 125 g ai/ha): 100; Plant response rating (0 to 100), Galium [9]: 70; Plant response rating: Galium ([9]; 62 g ai/ha): 100; Plant response rating: Galium ([9]; 125 g ai/ha): 100; Plant response rating (0 to 100), Chamomile [10]: 10; Plant response rating: Chamomile ([10]; 31 g ai/ha): 90; Plant response rating: Chamomile ([10]; 62 g ai/ha): 100; Plant response rating: Chamomile ([10]; 125 g ai/ha): 100; Plant response rating, Kochia ([11]; 125 g ai/ha): 90; Plant response rating, Kochia ([11]; 500 g ai/ha): 90
FC(F)(F)COc1nc(-c2ccccc2)nn1Cc1ccnc(C(F)(F)F)c1 [Compound 24] | 30 | 80 | 85 | 100 | 95 | 100 | 100 | 100 | 55 | 70 | 65 | 75 | 75 | 75 | 75 | 90 | 75 | 100 | 75 | 98 | Plant response rating, Ragweed ([5]; 500 g ai/ha, approx. 10 d): 40; Plant response rating (0 to 100), Radish, Wild [6]: 45; Plant response rating: Foxtail, Green ([7]; 125 g ai/ha): 100; Plant response rating: Radish, Wild ([8]; 16 g ai/ha): 70; Plant response rating: Radish, Wild ([8]; 31 g ai/ha): 95; Plant response rating: Radish, Wild ([8]; 62 g ai/ha): 95; Plant response rating: Radish, Wild ([8]; 125 g ai/ha): 95; Plant response rating (0 to 100), Galium [9]: 55; Plant response rating: Galium ([9]; 62 g ai/ha): 65; Plant response rating: Galium ([9]; 125 g ai/ha): 75; Plant response rating (0 to 100), Chamomile [10]: 0; Plant response rating: Chamomile ([10]; 31 g ai/ha): 35; Plant response rating: Chamomile ([10]; 62 g ai/ha): 85; Plant response rating: Chamomile ([10]; 125 g ai/ha): 90; Plant response rating, Kochia ([11]; 125 g ai/ha): 90; Plant response rating, Kochia ([11]; 500 g ai/ha): 90
COc1nc(-c2ccc(Cl)cc2)nn1Cc1ccnc(C(F)(F)F)c1 [Compound 28] | 20 | 75 | 95 | 100 | 100 | 100 | 100 | 100 | 65 | 70 | 75 | 80 | 75 | 75 | 85 | 80 | 60 | 80 | 80 | 85 | Plant response rating, Ragweed ([5]; 125 g ai/ha): 10; Plant response rating, Ragweed ([5]; 500 g ai/ha, approx. 10 d): 40; Plant response rating: Foxtail, Green ([7]; 125 g ai/ha): 100; Plant response rating: Radish, Wild ([8]; 16 g ai/ha): 85; Plant response rating: Radish, Wild ([8]; 31 g ai/ha): 95; Plant response rating: Radish, Wild ([8]; 62 g ai/ha): 95; Plant response rating: Radish, Wild ([8]; 125 g ai/ha): 100; Plant response rating (0 to 100), Galium [9]: 65; Plant response rating: Galium ([9]; 62 g ai/ha): 75; Plant response rating: Galium ([9]; 125 g ai/ha): 80; Plant response rating (0 to 100), Chamomile [10]: 0; Plant response rating: Chamomile ([10]; 31 g ai/ha): 20; Plant response rating: Chamomile ([10]; 62 g ai/ha): 75; Plant response rating: Chamomile ([10]; 125 g ai/ha): 95; Plant response rating, Kochia ([11]; 125 g ai/ha): 90; Plant response rating, Kochia ([11]; 500 g ai/ha): 90
